Experiments:
Estrogen receptor = target: T1, Estrogen receptor (Homo sapiens, UniProt P03372); assay: Estrogenic activity at estrogen receptor alpha in human Ishikawa cells assessed as induction of alkaline phosphatase activity using p-Nitrophenol phosphate as substrate pretreated for 96 hrs followed by substrate addition measured every 15 secs by scanning spectrophotometric analysis; format: cell-based
T1 sequence (P03372 whole entry): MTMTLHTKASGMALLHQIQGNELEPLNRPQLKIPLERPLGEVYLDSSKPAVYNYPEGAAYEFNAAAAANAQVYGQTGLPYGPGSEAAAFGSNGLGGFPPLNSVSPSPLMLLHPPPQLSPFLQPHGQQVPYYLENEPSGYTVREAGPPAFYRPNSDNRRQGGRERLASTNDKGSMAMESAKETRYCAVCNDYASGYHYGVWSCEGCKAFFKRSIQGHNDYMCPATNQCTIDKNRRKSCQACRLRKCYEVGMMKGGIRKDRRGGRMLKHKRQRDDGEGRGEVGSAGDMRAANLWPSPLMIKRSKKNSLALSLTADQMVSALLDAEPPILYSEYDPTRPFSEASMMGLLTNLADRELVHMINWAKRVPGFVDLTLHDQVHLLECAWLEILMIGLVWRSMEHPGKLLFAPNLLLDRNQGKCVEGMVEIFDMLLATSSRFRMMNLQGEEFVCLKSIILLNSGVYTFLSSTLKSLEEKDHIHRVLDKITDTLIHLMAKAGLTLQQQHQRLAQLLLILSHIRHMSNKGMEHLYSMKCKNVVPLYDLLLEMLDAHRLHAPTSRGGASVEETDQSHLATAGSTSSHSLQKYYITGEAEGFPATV

[1] = target: NAD(P)H dehydrogenase [quinone] 1 (Mus musculus) (UniProt Q64669)
Description: Induction of NQO1 activity in mouse Hepa1c1c7 cells after 48 hrs by MTT reduction assay

Ishikawa = assay: cells; settings: Homo sapiens, 96 h
Description: Cytotoxicity against human Ishikawa cells after 96 hrs by SRB assay

cells = settings: Mus musculus, Hepa-1c1c7, 48 h
Description: Cytotoxicity against mouse Hepa1c1c7 cells after 48 hrs by crystal violet staining based assay

Chain of NAD(P)H dehydrogenase [quinone] 1 (Mus musculus) (Q64669 whole entry): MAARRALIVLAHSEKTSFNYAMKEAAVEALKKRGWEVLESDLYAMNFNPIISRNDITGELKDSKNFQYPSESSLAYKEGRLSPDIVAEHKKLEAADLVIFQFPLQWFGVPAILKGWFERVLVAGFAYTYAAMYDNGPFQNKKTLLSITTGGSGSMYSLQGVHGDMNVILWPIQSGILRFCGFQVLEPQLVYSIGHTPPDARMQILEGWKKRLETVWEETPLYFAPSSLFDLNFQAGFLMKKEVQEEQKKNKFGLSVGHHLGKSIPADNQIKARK

SMILES	EC50 (Estrogen receptor; read-out: EC50) [µM]	CD [1] [µM]	IC50 (Ishikawa) [µM]	IC50 (cells) [µM]	EC50 (Estrogen receptor; ishikawa)
CC(C)=CCc1c(O)cc2c(c1O)C(=O)CC(c1ccc(O)cc1)O2 (stereo unspecified)	0.4	> 30	> 5	> 20	–
O=c1cc(-c2ccc(Br)cc2)oc2ccccc12	–	–	–	0.7 to 166	–
CC(C)=CCc1c(O)cc(O)c2c1O[C@H](c1ccc(O)cc1)CC2=O	–	> 30	19.1	> 20	–
COc1cc(O)c(CC=C(C)C)c2c1C(=O)CC(c1ccc(O)cc1)O2 (stereo unspecified) [ISOXANTHOHUMOL]	1.4	> 50	24.9	30.7	–
COc1cc(O)c(CC=C(C)C)c(O)c1C(=O)/C=C/c1ccc(O)cc1 [XANTHOHUMOL]	–	1.3	4.2	17.5	Not Active

— ChEMBL document CHEMBL4190325, “[…] Extracts as Tools to Balance Estrogenic and Chemopreventive Activities of Botanicals for Women's Health” (J Nat Prod, 2017)
